Source: patent publication US10160747B2, “Compounds and methods for kinase modulation, and indications therefor” (Plexxikon Inc., priority 2016, dated 2018)

Tests used:
[1] = target: T1, c-KIT (Homo sapiens, UniProt P10721); experiment: c-KIT recombinant enzyme kinase assay (AlphaScreen); type: biochemical; conditions: 100 ATP, 8 pt
T1 construct: purchased Millipore 14-559K
Method in brief: (§1)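 Kinase activity of recombinant FLT3-ITD, FLT3-D835Y and c-KIT was followed via phosphotyrosine formation on a 30 nM biotin-peptide substrate, captured on streptavidin donor and anti-phosphotyrosine acceptor AlphaScreen beads. ATP was set at 10 μM for FLT3 and 100 μM for c-KIT.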

[2] = target: T2, FLT3-ITD (Homo sapiens, UniProt P36888); experiment: FLT3-ITD recombinant enzyme kinase assay (AlphaScreen); type: biochemical; conditions: 8 pt; read-out: FLT3_ITD 8 pt: IC50
T2 sequence (P36888 1-993): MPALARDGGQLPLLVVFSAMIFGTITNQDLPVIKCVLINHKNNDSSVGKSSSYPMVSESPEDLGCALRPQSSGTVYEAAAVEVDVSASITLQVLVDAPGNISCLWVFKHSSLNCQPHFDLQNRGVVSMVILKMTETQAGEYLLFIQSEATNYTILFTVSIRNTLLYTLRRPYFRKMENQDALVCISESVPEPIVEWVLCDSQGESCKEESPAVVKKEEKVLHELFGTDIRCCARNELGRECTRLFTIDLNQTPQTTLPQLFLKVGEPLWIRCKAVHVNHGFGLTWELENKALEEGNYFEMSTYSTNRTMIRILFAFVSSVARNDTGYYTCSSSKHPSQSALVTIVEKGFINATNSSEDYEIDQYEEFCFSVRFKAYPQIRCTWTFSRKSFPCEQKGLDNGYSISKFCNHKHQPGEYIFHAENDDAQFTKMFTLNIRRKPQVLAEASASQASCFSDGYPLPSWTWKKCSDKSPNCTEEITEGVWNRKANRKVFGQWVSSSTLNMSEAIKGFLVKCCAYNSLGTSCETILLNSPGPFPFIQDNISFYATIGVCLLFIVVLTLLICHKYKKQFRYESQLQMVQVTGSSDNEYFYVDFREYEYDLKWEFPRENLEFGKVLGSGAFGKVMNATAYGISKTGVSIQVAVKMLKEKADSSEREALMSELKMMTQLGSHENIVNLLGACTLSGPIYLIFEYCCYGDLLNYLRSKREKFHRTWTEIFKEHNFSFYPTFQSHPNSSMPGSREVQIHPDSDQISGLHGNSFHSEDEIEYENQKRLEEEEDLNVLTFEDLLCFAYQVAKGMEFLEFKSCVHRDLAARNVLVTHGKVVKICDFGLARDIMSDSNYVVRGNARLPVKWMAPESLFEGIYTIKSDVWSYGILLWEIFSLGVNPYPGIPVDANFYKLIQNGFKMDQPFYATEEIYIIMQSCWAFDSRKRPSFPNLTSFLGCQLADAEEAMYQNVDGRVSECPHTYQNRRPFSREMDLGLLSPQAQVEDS
Method in brief: as §1

T1 sequence (P10721 26-976): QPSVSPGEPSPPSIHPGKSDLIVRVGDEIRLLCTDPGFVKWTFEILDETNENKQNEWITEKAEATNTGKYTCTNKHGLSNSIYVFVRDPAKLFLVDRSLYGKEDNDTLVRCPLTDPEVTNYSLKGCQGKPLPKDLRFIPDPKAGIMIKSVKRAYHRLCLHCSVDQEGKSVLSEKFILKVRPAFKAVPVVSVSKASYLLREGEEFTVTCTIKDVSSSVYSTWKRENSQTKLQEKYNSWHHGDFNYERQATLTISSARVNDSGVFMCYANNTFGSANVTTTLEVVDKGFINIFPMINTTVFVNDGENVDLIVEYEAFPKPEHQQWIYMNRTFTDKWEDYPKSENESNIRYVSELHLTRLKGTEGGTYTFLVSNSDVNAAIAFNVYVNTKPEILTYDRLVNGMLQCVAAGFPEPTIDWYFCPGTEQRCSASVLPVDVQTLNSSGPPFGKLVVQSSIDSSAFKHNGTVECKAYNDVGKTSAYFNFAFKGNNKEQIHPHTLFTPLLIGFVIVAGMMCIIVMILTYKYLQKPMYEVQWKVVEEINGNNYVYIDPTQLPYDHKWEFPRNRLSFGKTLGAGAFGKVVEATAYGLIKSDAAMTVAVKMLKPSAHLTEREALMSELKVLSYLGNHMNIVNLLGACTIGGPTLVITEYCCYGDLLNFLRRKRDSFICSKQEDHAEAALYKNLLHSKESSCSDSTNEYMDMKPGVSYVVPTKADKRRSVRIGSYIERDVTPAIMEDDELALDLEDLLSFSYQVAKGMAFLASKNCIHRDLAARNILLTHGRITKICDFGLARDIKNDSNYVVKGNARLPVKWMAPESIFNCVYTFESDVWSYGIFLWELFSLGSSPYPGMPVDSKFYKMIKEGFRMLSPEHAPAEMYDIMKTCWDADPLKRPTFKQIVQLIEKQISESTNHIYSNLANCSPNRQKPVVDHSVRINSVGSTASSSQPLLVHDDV

`COCCn1cc(Nc2ncc(-c3ccc(CC(=O)Nc4ccc(C(F)(F)F)cn4)c(F)c3)cn2)cn1` [Compound P-0269, 2-[2-fluoro-4-[2-[[1-(2-methoxyethyl)pyrazol-4-yl]amino]pyrimidin-5-yl]phenyl]-N-[5-(trifluoromethyl)-2-pyridyl]acetamide] showed an IC50 [1] of 0.0001 to 10 µM and an IC50 [2] of 0.0001 to 10 µM.

`COc1ncc(NC(=O)Cc2ccc(-c3cnc(Nc4cnn(C5CC5)c4)nc3)cc2F)cc1C(F)(F)F` [Compound P-0241, 2-[4-[2-[(1-cyclopropylpyrazol-4-yl)amino]pyrimidin-5-yl]-2-fluoro-phenyl]-N-[6-methoxy-5-(trifluoromethyl)-3-pyridyl]acetamide] gave an IC50 [1] of 0.0001 to 10 µM and an IC50 [2] of 0.0001 to 10 µM.

Compound `Cc1ncc(NC(=O)Cc2ccc(-c3cnc(Nc4cnn(C5CC5)c4)nc3)cc2F)cc1C(F)(F)F` [Compound P-0239, 2-[4-[2-[(1-cyclopropylpyrazol-4-yl)amino]pyrimidin-5-yl]-2-fluoro-phenyl]-N-[6-methyl-5-(trifluoromethyl)-3-pyridyl]acetamide] has an IC50 [1] of 0.0001 to 10 µM and an IC50 [2] of 0.0001 to 10 µM.

Work on `CCn1cc(Nc2ncc(-c3cc(F)c(CC(=O)Nc4cnc(OC)c(C(F)(F)F)c4)cc3F)cn2)cn1` [Compound P-0247, 2-[4-[2-[(1-ethylpyrazol-4-yl)amino]pyrimidin-5-yl]-2,5-difluoro-phenyl]-N-[6-methoxy-5-(trifluoromethyl)-3-pyridyl]acetamide] yielded an IC50 [1] of 0.0001 to 10 µM.

For `COCCn1cc(Nc2ncc(-c3ccc(CC(=O)Nc4cncc(C(F)(F)F)c4)c(F)c3)cn2)cn1` [Compound P-0267, 2-[2-fluoro-4-[2-[[1-(2-methoxyethyl)pyrazol-4-yl]amino]pyrimidin-5-yl]phenyl]-N-[5-(trifluoromethyl)-3-pyridyl]acetamide], the IC50 [1] was 0.0001 to 10 µM and the IC50 [2] was 0.0001 to 10 µM.

For `Cc1ncc(NC(=O)Cc2ccc(-c3cnc(Nc4cnn(C(F)F)c4)nc3)cc2)cc1C(F)(F)F` [Compound P-0210, 2-[4-[2-[[1-(difluoromethyl)pyrazol-4-yl]amino]pyrimidin-5-yl]phenyl]-N-[6-methyl-5-(trifluoromethyl)-3-pyridyl]acetamide], the IC50 [1] was 0.0001 to 10 µM and the IC50 [2] was 0.0001 to 10 µM.

`Cc1ncc(NC(=O)Cc2ccc(-c3cnc(Nc4cnn(C5CC5)c4)nc3)cc2)cc1C(F)(F)F` [Compound P-0232, 2-[4-[2-[(1-cyclopropylpyrazol-4-yl)amino]pyrimidin-5-yl]phenyl]-N-[6-methyl-5-(trifluoromethyl)-3-pyridyl]acetamide] was tested, and the IC50 [1] was 0.0001 to 10 µM and the IC50 [2] was 0.0001 to 10 µM.

`COc1ncc(NC(=O)Cc2ccc(-c3cnc(Nc4cnn(C(F)F)c4)nc3)cc2)cc1C(F)(F)F` [Compound P-0211, 2-[4-[2-[[1-(difluoromethyl)pyrazol-4-yl]amino]pyrimidin-5-yl]phenyl]-N-[6-methoxy-5-(trifluoromethyl)-3-pyridyl]acetamide] gave an IC50 [1] of 0.0001 to 10 µM and an IC50 [2] of 0.0001 to 10 µM.

In the case of `COc1ncc(NC(=O)Cc2ccc(-c3cnc(Nc4cn[nH]c4C)nc3)cc2)cc1C(F)(F)F` [Compound P-0221, N-[6-methoxy-5-(trifluoromethyl)-3-pyridyl]-2-[4-[2-[(5-methyl-1H-pyrazol-4-yl)amino]pyrimidin-5-yl]phenyl]acetamide], the IC50 [1] is reported as 0.0001 to 10 µM and the IC50 [2] is reported as 0.0001 to 10 µM.

In the case of `CCOc1n[nH]c2ncc(-c3ccc(CC(=O)Nc4cnc(OC)c(C(F)(F)F)c4)cc3F)cc12` [Compound P-0202, 2-[4-(3-ethoxy-1H-pyrazolo[3,4-b]pyridin-5-yl)-3-fluoro-phenyl]-N-[6-methoxy-5-(trifluoromethyl)-3-pyridyl]acetamide], the IC50 [1] is reported as 0.0001 to 10 µM and the IC50 [2] is reported as 0.0001 to 10 µM.

`CCn1cc(Nc2ncc(-c3ccc(CC(=O)Nc4ccc(C(F)(F)F)nc4)c(F)c3)cn2)cn1` [Compound P-0257, 2-[4-[2-[(1-ethylpyrazol-4-yl)amino]pyrimidin-5-yl]-2-fluoro-phenyl]-N-[6-(trifluoromethyl)-3-pyridyl]acetamide] showed an IC50 [1] of 0.0001 to 10 µM and an IC50 [2] of 0.0001 to 10 µM.

`CCn1cc(Nc2ncc(-c3ccc(CC(=O)Nc4cnc(OC)c(C(F)(F)F)c4)cc3)cn2)cn1` [Compound P-0253, 2-[4-[2-[(1-ethylpyrazol-4-yl)amino]pyrimidin-5-yl]phenyl]-N-[6-methoxy-5-(trifluoromethyl)-3-pyridyl]acetamide] showed an IC50 [1] of 0.0001 to 10 µM and an IC50 [2] of 0.0001 to 10 µM.

Work on `COCCn1cc(Nc2ncc(-c3ccc(CC(=O)Nc4cnc(Cl)c(C(F)(F)F)c4)c(F)c3)cn2)cn1` [Compound P-0266, N-[6-chloro-5-(trifluoromethyl)-3-pyridyl]-2-[2-fluoro-4-[2-[[1-(2-methoxyethyl)pyrazol-4-yl]amino]pyrimidin-5-yl]phenyl]acetamide] yielded an IC50 [1] of 0.0001 to 10 µM and an IC50 [2] of 0.0001 to 10 µM.

Compound `COc1ncc(NC(=O)Cc2ccc(-c3cnc4[nH]nc(C5CC5)c4c3)cc2F)cc1C(F)(F)F` [Compound P-0262, 2-[4-(3-cyclopropyl-1H-pyrazolo[3,4-b]pyridin-5-yl)-2-fluoro-phenyl]-N-[6-methoxy-5-(trifluoromethyl)-3-pyridyl]acetamide] has an IC50 [1] of 0.0001 to 10 µM.

`COc1ncc(NC(=O)Cc2ccc(-c3cnc4[nH]c(C#Cc5cncn5C)cc4c3)cc2)cc1C(F)(F)F` [Compound P-0227, N-[6-methoxy-5-(trifluoromethyl)-3-pyridyl]-2-[4-[2-[2-(3-methylimidazol-4-yl)ethynyl]-1H-pyrrolo[2,3-b]pyridin-5-yl]phenyl]acetamide] was tested, and the IC50 [2] was 0.0001 to 10 µM.

`COc1ncc(NC(=O)Cc2ccc(-c3cnc4[nH]c(C#CC(C)(C)C)cc4c3)cc2)cc1C(F)(F)F` [Compound P-0219, 2-[4-[2-(3,3-dimethylbut-1-ynyl)-1H-pyrrolo[2,3-b]pyridin-5-yl]phenyl]-N-[6-methoxy-5-(trifluoromethyl)-3-pyridyl]acetamide] was tested, and the IC50 [2] was 0.0001 to 10 µM.

In the case of `COc1ncc(NC(=O)Cc2ccc(-c3cnc4[nH]c(-c5ccnc(C#N)c5)cc4c3)cc2F)cc1C(F)(F)F` [Compound P-0013, 2-[4-[2-(2-cyano-4-pyridyl)-1H-pyrrolo[2,3-b]pyridin-5-yl]-2-fluoro-phenyl]-N-[6-methoxy-5-(trifluoromethyl)-3-pyridyl]acetamide], the IC50 [1] is reported as 0.0001 to 10 µM.

Work on `COc1ncc(NC(=O)Cc2ccc(-c3cnc4[nH]nc(C5CC5)c4c3)cc2)cc1C(F)(F)F` [Compound P-0263, 2-[4-(3-cyclopropyl-1H-pyrazolo[3,4-b]pyridin-5-yl)phenyl]-N-[6-methoxy-5-(trifluoromethyl)-3-pyridyl]acetamide] yielded an IC50 [1] of 0.0001 to 10 µM.

`COc1ncc(NC(=O)Cc2ccc(-c3cnc(Nc4cnn(C)c4)nc3)c(F)c2)cc1C(F)(F)F` [Compound P-0206, 2-[3-fluoro-4-[2-[(1-methylpyrazol-4-yl)amino]pyrimidin-5-yl]phenyl]-N-[6-methoxy-5-(trifluoromethyl)-3-pyridyl]acetamide] showed an IC50 [2] of 0.0001 to 10 µM.

Work on `CCn1cc(Nc2ncc(-c3ccc(CC(=O)Nc4cnc(OC)c(C(F)(F)F)c4)cc3F)cn2)cn1` [Compound P-0246, 2-[4-[2-[(1-ethylpyrazol-4-yl)amino]pyrimidin-5-yl]-3-fluoro-phenyl]-N-[6-methoxy-5-(trifluoromethyl)-3-pyridyl]acetamide] yielded an IC50 [1] of 0.0001 to 10 µM.

`CCn1cc(Nc2ncc(-c3cc(F)c(CC(=O)Nc4cnc(C)c(C(F)(F)F)c4)cc3F)cn2)cn1` [Compound P-0249, 2-[4-[2-[(1-ethylpyrazol-4-yl)amino]pyrimidin-5-yl]-2,5-difluoro-phenyl]-N-[6-methyl-5-(trifluoromethyl)-3-pyridyl]acetamide] gave an IC50 [1] of 0.0001 to 10 µM.

`COc1ncc(NC(=O)Cc2cc(F)c(-c3cnc(Nc4cnn(C)c4)nc3)cc2F)cc1C(F)(F)F` [Compound P-0208, 2-[2,5-difluoro-4-[2-[(1-methylpyrazol-4-yl)amino]pyrimidin-5-yl]phenyl]-N-[6-methoxy-5-(trifluoromethyl)-3-pyridyl]acetamide] gave an IC50 [1] of 0.0001 to 10 µM.

With `CCn1cc(Nc2ncc(-c3ccc(CC(=O)Nc4cnc(C)c(C(F)(F)F)c4)cc3F)cn2)cn1` [Compound P-0248, 2-[4-[2-[(1-ethylpyrazol-4-yl)amino]pyrimidin-5-yl]-3-fluoro-phenyl]-N-[6-methyl-5-(trifluoromethyl)-3-pyridyl]acetamide] the IC50 [1] was 0.0001 to 10 µM.

With `COc1cc(-c2cc3cc(-c4ccc(CC(=O)Nc5cncc(C(F)(F)F)c5)cc4F)cnc3[nH]2)ccn1` [Compound P-0200, 2-(3-fluoro-4-(2-(2-methoxypyridin-4-yl)-1H-pyrrolo[2,3-b]pyridin-5-yl)phenyl)-N-(5-(trifluoromethyl)pyridin-3-yl)acetamide] the IC50 [2] was 0.0001 to 10 µM.
